Positions count from the first letter of the chain named.
Columns and labels:
Assay in all cases: E. coli hemG growth inhibition by herbicide, AtPPO1 variant
Format in all cases: cell-based
Conditions in all cases: read-out: percentage growth inhibition
AtPPO1 V218K = biological target: T1, AtPPO1 V218K (Arabidopsis thaliana, UniProt P55826, V218K)
T1 construct: expressed in transfected cells; host or cells: E. coli BL21(DE3) hemG (hemG replaced by CmR), pET24a plasmid
T1 sequence (P55826 35-537 V218K): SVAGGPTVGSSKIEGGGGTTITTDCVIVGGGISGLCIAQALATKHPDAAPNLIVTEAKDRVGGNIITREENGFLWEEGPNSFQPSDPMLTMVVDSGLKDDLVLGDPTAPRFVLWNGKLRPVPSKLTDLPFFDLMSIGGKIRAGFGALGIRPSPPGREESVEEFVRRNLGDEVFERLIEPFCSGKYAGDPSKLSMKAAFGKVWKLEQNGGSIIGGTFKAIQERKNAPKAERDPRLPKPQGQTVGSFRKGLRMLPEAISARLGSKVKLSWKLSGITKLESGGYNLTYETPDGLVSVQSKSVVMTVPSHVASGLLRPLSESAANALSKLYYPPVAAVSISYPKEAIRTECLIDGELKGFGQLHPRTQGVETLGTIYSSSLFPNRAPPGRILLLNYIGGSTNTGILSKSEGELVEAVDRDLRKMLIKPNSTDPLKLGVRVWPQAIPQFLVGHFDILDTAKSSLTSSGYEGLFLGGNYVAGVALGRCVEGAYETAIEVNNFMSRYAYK
Outline: (§1)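 AtPPO1 variants from a site-saturation library, codon-optimised and T7-driven in pET24a, were expressed in E. coli BL21(DE3) lacking hemG (hemG replaced by CmR). Growth in Terrific broth with 0.1 mM IPTG plus 6.25 ppm herbicide 0 or E, 0.78 ppm herbicide B, or DMSO was read as OD600 after 24 h at 37° C; inhibition was calculated against the DMSO culture.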

AtPPO1 Y361R = biological target: T2, AtPPO1 Y361R (Arabidopsis thaliana, UniProt P55826, Y361R)
T2 sequence (P55826 35-537 P363R/Y361R): T1 sequence (P55826 35-537 V218K) with K184V
Outline: as §1

AtPPO1 Y426L = biological target: T3, AtPPO1 Y426L (Arabidopsis thaliana, UniProt P55826, Y426L)
T3 construct: expressed in transfected cells; host or cells: E. coli BL21(DE3) hemG (pET24a, T7 promoter)
T3 sequence (P55826 35-537 Y426L): T1 sequence (P55826 35-537 V218K) with K184V, Y392L
Outline: as §1

AtPPO1 P418M = biological target: T4, AtPPO1 P418M (Arabidopsis thaliana, UniProt P55826, P418M)
T4 construct: expressed in transfected cells; host or cells: E. coli BL21(DE3) hemG (pET24a, T7 promoter)
T4 sequence (P55826 35-537 P418M): T1 sequence (P55826 35-537 V218K) with K184V, P384M
Outline: as §1

CC(C)N(C)S(=O)(=O)NC(=O)c1cc(-n2c(=O)cc(C(F)(F)F)n(C)c2=O)c(F)cc1Cl [Herbicide E, saflufenacil]
inhibition at 6.25 ppm (AtPPO1 V218K): 50% | inhibition at 6.25 ppm (AtPPO1 Y361R): 56% | inhibition at 6.25 ppm (AtPPO1 Y426L): 12% | inhibition at 6.25 ppm (AtPPO1 P418M): 64%

C#CCN1C(=O)C(F)(F)Oc2cc(F)c(-n3c(=O)n(C)c(=S)n(C)c3=O)cc21 [Herbicide B, trifludimoxazin]
inhibition at 0.78 ppm (AtPPO1 V218K): 38% | inhibition at 0.78 ppm (AtPPO1 Y361R): 36% | inhibition at 0.78 ppm (AtPPO1 Y426L): 15% | inhibition at 0.78 ppm (AtPPO1 P418M): 12%

CCOC(=O)[C@]1(C)CC(c2cc(-n3c(=O)n(C)c(=S)n(C)c3=O)c(F)cc2Cl)=NO1 [Herbicide D, ethyl (5S)-3-[2-chloro-5-(3,5-dimethyl-2,6-dioxo-4-thioxo-1,3,5-triazinan-1-yl)-4-fluoro-phenyl]-5-methyl-4H-isoxazole-5-carboxylate]
inhibition at 6.25 ppm (AtPPO1 V218K): 31% | inhibition at 6.25 ppm (AtPPO1 Y361R): 43% | inhibition at 6.25 ppm (AtPPO1 Y426L): 25% | inhibition at 6.25 ppm (AtPPO1 P418M): 25%

— patent publication US20260297542A1, “HERBICIDE RESISTANT PLANTS” (SYNGENTA CROP PROTECTION AG, priority 2023, published 2026)
